Data taken from ChEMBL document CHEMBL3400059, “Synthesis and structure-activity relationships of a series of 4-methoxy-3-(piperidin-4-yl)oxy benzamides as novel inhibitors of the presynaptic choline transporter” (Bioorg Med Chem Lett, 2015).
Activity calls are given as the source filed them. The rule behind the calls is not given here.

Experiments:
[1] = tested on: T1, High affinity choline transporter 1 (Homo sapiens), Q9GZV3 [L531A,V532A]; test: Inhibition of human CHT […] mutant expressed in HEK293 cells assessed as remaining transporter activity at 5 uM in presence of 100 nM [3H]choline by [3H]choline uptake assay; type: cell-based
T1 sequence (whole entry): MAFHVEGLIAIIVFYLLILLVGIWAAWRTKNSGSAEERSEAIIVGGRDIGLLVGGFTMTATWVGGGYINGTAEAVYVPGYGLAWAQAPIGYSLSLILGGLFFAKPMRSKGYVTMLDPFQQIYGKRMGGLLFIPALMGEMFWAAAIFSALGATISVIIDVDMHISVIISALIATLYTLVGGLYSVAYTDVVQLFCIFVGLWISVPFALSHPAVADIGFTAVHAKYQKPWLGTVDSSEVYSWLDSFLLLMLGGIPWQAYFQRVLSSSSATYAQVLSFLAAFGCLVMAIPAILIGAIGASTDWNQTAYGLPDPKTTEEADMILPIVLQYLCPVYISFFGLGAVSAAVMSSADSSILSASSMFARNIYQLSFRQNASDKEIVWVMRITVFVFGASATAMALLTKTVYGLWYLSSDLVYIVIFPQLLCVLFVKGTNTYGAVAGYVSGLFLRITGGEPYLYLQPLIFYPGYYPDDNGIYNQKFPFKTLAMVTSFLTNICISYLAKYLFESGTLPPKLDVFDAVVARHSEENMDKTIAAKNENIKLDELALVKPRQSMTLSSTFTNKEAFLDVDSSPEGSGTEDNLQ

[2] = tested on: T1, High affinity choline transporter 1 (Homo sapiens), Q9GZV3 [L531A,V532A]; test: Inhibition of human CHT […] mutant expressed in HEK293 cells assessed as remaining transporter activity at 5 uM in presence of 10 uM [3H]choline by [3H]choline uptake assay; type: cell-based
[3] = molecular target: T2, High affinity choline transporter 1 (Homo sapiens, UniProt Q9GZV3, L531A/V532A); test: Inhibition of human CHT […] mutant expressed in HEK293 cells assessed as remaining transporter activity in presence of 100 nM [3H]choline by [3H]choline uptake assay; type: cell-based
[4] = molecular target: T2, High affinity choline transporter 1; test: Inhibition of human CHT […] mutant expressed in HEK293 cells assessed as remaining transporter activity in presence of 10 uM [3H]choline by [3H]choline uptake assay; type: cell-based
[5] = molecular target: T2, High affinity choline transporter 1; test: Inhibition of human CHT […] mutant expressed in HEK293 cells by membrane depolarization assay; type: cell-based
[6] = Hepatic clearance in mouse liver microsomes; type: ADME
Cytochrome P450 2C9 = Cytochrome P450 2C9 (Homo sapiens, UniProt P11712); test: Inhibition of human CYP2C9; type: ADME
Cytochrome P450 2C9, sequence (P11712 whole entry): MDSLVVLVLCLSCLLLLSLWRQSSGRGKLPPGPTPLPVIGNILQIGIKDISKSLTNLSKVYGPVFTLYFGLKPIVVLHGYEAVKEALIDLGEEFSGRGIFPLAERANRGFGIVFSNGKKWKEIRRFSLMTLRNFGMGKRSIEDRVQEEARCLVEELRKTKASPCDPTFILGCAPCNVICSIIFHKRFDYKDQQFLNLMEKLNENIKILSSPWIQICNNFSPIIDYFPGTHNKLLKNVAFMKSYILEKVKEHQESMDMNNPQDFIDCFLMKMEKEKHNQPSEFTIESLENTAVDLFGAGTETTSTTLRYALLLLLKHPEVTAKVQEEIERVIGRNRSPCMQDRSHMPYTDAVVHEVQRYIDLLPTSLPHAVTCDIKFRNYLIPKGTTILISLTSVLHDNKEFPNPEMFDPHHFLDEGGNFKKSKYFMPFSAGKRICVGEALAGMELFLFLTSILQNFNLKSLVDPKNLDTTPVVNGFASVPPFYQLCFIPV

Cytochrome P450 3A4 = Cytochrome P450 3A4 (Homo sapiens, UniProt P08684); test: Inhibition of human CYP3A4; type: ADME
Cytochrome P450 3A4, sequence (P08684 whole entry): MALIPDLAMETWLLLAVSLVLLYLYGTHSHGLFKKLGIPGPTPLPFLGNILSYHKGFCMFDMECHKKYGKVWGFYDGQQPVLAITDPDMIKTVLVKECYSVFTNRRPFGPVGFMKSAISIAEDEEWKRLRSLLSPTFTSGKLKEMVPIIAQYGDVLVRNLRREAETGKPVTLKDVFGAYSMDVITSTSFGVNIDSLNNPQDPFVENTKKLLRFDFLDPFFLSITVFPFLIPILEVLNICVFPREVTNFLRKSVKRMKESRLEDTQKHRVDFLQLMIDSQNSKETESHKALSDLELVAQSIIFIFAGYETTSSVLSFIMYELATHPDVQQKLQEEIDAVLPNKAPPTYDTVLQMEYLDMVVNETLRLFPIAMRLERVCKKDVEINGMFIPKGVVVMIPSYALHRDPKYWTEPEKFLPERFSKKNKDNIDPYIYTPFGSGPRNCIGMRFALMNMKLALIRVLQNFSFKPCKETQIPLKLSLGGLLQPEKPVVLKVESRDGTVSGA

[7] = Ratio of drug level in brain to plasma in mouse at 1 mg/kg, ip administered as cassette dosing; type: ADME, organism-based; design: dose 1 mg/kg, route intraperitoneal
Cytochrome P450 2D6 = Cytochrome P450 2D6 (Homo sapiens, UniProt P10635); test: Inhibition of human CYP2D6; type: ADME
Cytochrome P450 2D6, sequence (P10635 whole entry): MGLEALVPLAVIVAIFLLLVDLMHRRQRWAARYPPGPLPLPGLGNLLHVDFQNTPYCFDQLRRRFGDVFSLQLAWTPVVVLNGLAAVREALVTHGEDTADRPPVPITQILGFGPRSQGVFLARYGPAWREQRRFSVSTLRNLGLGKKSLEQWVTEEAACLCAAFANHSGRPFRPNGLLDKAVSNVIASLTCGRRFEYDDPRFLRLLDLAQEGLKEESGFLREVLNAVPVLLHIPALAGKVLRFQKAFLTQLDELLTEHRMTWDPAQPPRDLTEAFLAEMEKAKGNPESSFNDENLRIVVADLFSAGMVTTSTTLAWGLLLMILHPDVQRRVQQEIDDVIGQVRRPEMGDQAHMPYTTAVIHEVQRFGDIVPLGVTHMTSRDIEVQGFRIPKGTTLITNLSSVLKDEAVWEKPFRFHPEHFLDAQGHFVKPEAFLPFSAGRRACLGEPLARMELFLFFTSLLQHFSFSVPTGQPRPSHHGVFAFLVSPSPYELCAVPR

Cytochrome P450 1A2 = molecular target: T3, Cytochrome P450 1A2 (Homo sapiens, UniProt P05177); test: Inhibition of human CYP1A2; type: ADME
T3 sequence (P05177 whole entry): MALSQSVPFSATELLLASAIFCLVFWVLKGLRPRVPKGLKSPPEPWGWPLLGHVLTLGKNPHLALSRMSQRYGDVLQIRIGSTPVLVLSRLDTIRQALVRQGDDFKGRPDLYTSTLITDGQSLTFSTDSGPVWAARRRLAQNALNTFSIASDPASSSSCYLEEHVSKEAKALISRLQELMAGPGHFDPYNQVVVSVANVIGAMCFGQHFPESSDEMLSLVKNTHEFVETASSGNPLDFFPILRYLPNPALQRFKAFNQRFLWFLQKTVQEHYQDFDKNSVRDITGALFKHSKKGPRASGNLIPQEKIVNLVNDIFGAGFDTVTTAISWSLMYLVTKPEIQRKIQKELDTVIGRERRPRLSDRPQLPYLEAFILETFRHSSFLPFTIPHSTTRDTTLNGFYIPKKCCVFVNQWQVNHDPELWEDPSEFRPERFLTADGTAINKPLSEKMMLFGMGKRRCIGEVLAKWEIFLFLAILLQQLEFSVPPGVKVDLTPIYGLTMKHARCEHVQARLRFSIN

Plasma = test: Fraction unbound in mouse plasma by equilibrium dialysis method; type: ADME, cell-free
Brain = test: Drug level in mouse brain at 1 mg/kg, ip administered as cassette dosing; type: ADME, organism-based; design: dose 1 mg/kg, route intraperitoneal; conditions: in vivo
[8] = molecular target: Sodium-dependent dopamine transporter (Homo sapiens) (UniProt Q01959); test: Inhibition of DAT (unknown origin)
Sodium-dependent dopamine transporter (Homo sapiens), sequence (Q01959 whole entry): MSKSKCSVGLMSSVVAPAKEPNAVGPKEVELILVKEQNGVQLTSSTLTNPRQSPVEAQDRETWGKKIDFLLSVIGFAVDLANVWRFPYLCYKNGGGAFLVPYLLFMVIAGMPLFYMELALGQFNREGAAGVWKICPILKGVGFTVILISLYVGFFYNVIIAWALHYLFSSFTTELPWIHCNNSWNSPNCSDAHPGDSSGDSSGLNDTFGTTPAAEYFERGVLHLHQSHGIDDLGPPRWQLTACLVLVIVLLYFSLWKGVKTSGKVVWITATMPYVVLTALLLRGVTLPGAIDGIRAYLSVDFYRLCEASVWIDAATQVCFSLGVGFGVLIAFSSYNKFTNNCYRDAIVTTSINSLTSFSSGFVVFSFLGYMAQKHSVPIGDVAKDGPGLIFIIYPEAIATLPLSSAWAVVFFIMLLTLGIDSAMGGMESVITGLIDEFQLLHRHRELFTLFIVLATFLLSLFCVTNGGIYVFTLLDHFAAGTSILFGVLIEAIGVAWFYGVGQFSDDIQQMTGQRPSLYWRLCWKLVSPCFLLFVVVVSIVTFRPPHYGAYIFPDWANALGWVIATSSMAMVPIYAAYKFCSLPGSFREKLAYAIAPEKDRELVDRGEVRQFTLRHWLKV

Row | SMILES | Activity [1] [%] | Activity [2] [%] | IC50 [3] [µM] | IC50 [4] [µM] | other results
1 | COc1ccc(C(=O)NCc2cc(C)n(C)n2)cc1OC1CCN(C(C)C)CC1 | 49.9 | 29.4 | 8.09 | 2.51 | –
2 | CC(NC(=O)c1ccc(OC2CCN(Cc3ccccn3)CC2)cc1)c1ccccc1 (centres undefined) | – | – | – | – | IC50 [5]: 1.26 µM
3 | CCn1cc(CNC(=O)c2ccc(OC)c(OC3CCN(C(C)C)CC3)c2)cn1 | 41.8 | 24.8 | 9.27 | 1.85 | –
4 | COc1ccc(C(=O)NCc2cc(C(C)C)no2)cc1OC1CCCCC1 | 83.2 | 87.6 | – | – | –
5 | COc1ccc(C(=O)NCc2cc(C(C)C)no2)cc1OC1CCNCC1 | 51.5 | 18.6 | – | – | –
6 | COc1ccc(C(=O)NCc2cc(C(C)C)no2)cc1OC(C)CN(C)C (centres undefined) | 59.7 | 28.2 | – | – | –
7 | COc1ccc(C(=O)NC(C)Cc2ccccn2)cc1OC1CCN(C(C)C)CC1 (centres undefined) | 46.3 | 20.4 | 4.12 | 1.73 | CLhep predicted [6]: 48.8 mL/min/kg; IC50 (Cytochrome P450 2C9): > 30 µM; IC50 (Cytochrome P450 3A4): 28.2 µM; BPR [7]: 1.1; IC50 (Cytochrome P450 2D6): 27.1 µM; IC50 (Cytochrome P450 1A2): > 30 µM; Fu (Plasma): 0.35; Drug uptake (Brain): 4 ng/g
8 | CCc1cc(CNC(=O)c2ccc(OC)c(OC3CCN(C(C)C)CC3)c2)on1 | – | – | – | – | IC50 [5]: 0.6 µM
9 | COc1ccc(C(=O)NCc2cc(C(C)C)no2)cc1O | 86.2 | 99.4 | – | – | –
10 | COc1ccc(C(=O)NCc2cnn(C)c2)cc1OC1CCN(C(C)C)CC1 | 64.8 | 47.5 | – | – | –
11 | COc1ccc(C(=O)NCc2cc(C(C)C)no2)cc1OCCN1CCCC1 | 50.1 | 29.8 | – | – | –
12 | COc1ccc(C(=O)NCc2nc(C)c(C)s2)cc1OC1CCN(C(C)C)CC1 | – | – | – | – | IC50 [5]: 0.76 µM
13 | COc1ccc(C(=O)NCc2cc(C(C)C)no2)cc1OCCN1CCCCC1 | 38.3 | -0.2 | 0.76 | 0.53 | CLhep predicted [6]: 58.4 mL/min/kg; IC50 (Cytochrome P450 2C9): > 30 µM; IC50 (Cytochrome P450 3A4): > 30 µM; BPR [7]: 0.07; IC50 (Cytochrome P450 2D6): > 30 µM; IC50 (Cytochrome P450 1A2): > 30 µM; Fu (Plasma): 0.71; Drug uptake (Brain): 1.8 ng/g
14 | COc1ccc(C(=O)NCc2cc(C(C)C)no2)cc1OC1CCN(C(C)C)CC1 | 10.9 | -2.8 | – | – | CLhep predicted [6]: 80.7 mL/min/kg; IC50 (Cytochrome P450 2C9): > 30 µM; IC50 (Cytochrome P450 3A4): > 30 µM; BPR [7]: < 0.06; IC50 (Cytochrome P450 2D6): > 30 µM; IC50 (Cytochrome P450 1A2): > 30 µM; Fu (Plasma): 0.57; Drug uptake (Brain; BLD = below limit of detection): BLD
15 | COc1ccc(C(=O)NCc2cc(C(C)C)no2)cc1OC1CCCC1 | 82 | 81.3 | – | – | –
16 | COc1ccc(C(=O)NCc2ccncn2)cc1OC1CCN(C(C)C)CC1 | 87.7 | 71.8 | – | – | –
17 | COc1ccc(C(=O)NCc2csc(C)n2)cc1OC1CCN(C(C)C)CC1 | 42.6 | 18.9 | 4.93 | 1.64 | CLhep predicted [6]: 82.4 mL/min/kg; IC50 (Cytochrome P450 2C9): > 30 µM; IC50 (Cytochrome P450 3A4): > 30 µM; BPR [7]: 0.19; IC50 (Cytochrome P450 2D6): > 30 µM; IC50 (Cytochrome P450 1A2): 10.3 µM; Fu (Plasma): 0.39; Drug uptake (Brain): 1.5 ng/g
18 | COc1ccc(C(=O)NCc2cc(C(C)C)no2)cc1OCCN1CCOCC1 | 36.7 | 32.1 | 6.12 | 1.77 | –
19 | COc1ccc(C(=O)NCc2cc(C(C)C)no2)cc1OCC(C)C | 99.8 | 89.4 | – | – | –
20 | COc1ccc(C(=O)NC(C)Cc2cnccn2)cc1OC1CCN(C(C)C)CC1 (centres undefined) | – | – | – | – | IC50 [5]: 4.47 µM
21 | COc1ccc(C(=O)NCCC2=CCCCC2)cc1OC1CCN(C(C)C)CC1 | – | – | – | – | IC50 [5]: 3.16 µM
22 | COc1ccc(C(=O)NCc2nc(C)cs2)cc1OC1CCN(C(C)C)CC1 | 42.2 | 13.2 | 3.48 | 1.02 | –
23 | CCCN1CCC(Oc2cccc(C(=O)NCCc3ccccc3)c2)CC1 | – | – | – | – | IC50 [5]: 4.22 µM
24 | COc1ccc(C(=O)NCc2cc(C(C)C)no2)cc1OC1CCCN(C)C1 (centres undefined) | 51.7 | 18.4 | 1.25 | 4.54 | –
25 | COc1ccc(C(=O)NCc2cc(C(C)C)no2)cc1OC1CCN(C)CC1 | 3.1 | -0.9 | – | – | CLhep predicted [6]: 29.4 mL/min/kg; IC50 (Cytochrome P450 2C9): > 30 µM; BPR [7]: 0.28; IC50 (Cytochrome P450 2D6): > 30 µM; IC50 (Cytochrome P450 1A2): > 30 µM; inhibition [8]: inactive; Fu (Plasma): 0.48; Drug uptake (Brain): 3.3 ng/g
26 | CCn1nc(C)c(CNC(=O)c2ccc(OC)c(OC3CCN(C(C)C)CC3)c2)c1C | 45.8 | 15.9 | 1.58 | 0.91 | CLhep predicted [6]: 22.4 mL/min/kg; IC50 (Cytochrome P450 2C9): > 30 µM; IC50 (Cytochrome P450 3A4): > 30 µM; BPR [7]: < 0.05; IC50 (Cytochrome P450 2D6): 6.7 µM; IC50 (Cytochrome P450 1A2): > 30 µM; Fu (Plasma): 0.57; Drug uptake (Brain; BLD = below limit of detection): BLD
27 | COc1ccc(C(=O)NCc2ccc(C)s2)cc1OC1CCN(C(C)C)CC1 | 76.4 | 36.7 | – | – | –
28 | COc1ccc(C(=O)NCCN2CCCC2)cc1OC1CCN(C(C)C)CC1 | 37.4 | 9.9 | 2.13 | 1.56 | –
29 | COc1ccc(C(=O)NC2CCc3ccccc32)cc1OC1CCN(C(C)C)CC1 (centres undefined) | – | – | – | – | IC50 [5]: 3.36 µM
